Experiments:
[1] = Rat pharmacokinetic study (intravenous and oral); format: in vivo; details: male, plasma, Sprague-Dawley rats, intravenous, 1 mg/kg, solution
Method: Pharmacokinetic profile of test articles in rodent were evaluated in fasted male ICR mouse and Sprague-Dawley rats. […] Typically, mice were dosed with 2 mg/kg and 10 mg/kg by intravenous injection and oral gavage, respectively. Rats were dosed with 1 mg/kg and 5 mg/kg by intravenous injection and oral gavage, respectively. Beagle dogs were dosed with 1 mg/kg and 5 mg/kg by intravenous injection and oral gavage, respectively. After dosing, blood samples were collected at each time point. For IV injection group, time points were set at 5, 15, 30 min, and then 1, 2, 4, 8 and 24 hours after dosing. For oral gavage group, timepoints were set at 15, 30 m, and then 1, 2, 4, 8, and 24 hours. Blood was collected into appropriately labeled tubes containing K2EDTA as the anticoagulant. Plasma was obtained within 1 hours of blood collection by centrifugation at 8000×g and 4° C. for 6 minutes, and then stored at −20° C. until analyzed by LCMS/MS for quantification.

[2] = Dog pharmacokinetic study (intravenous and oral); format: in vivo; details: plasma, Beagle dogs, oral, 20 mg/kg, solution
[3] = Mini-pig dermal pharmacokinetic study; format: in vivo, Guangxi Bama mini-pigs; details: topical administration
Description: The aim of this study was to obtain the topical distribution of test articles in mini-pig after topical administration. Test articles were formulated in 50% PEG400, 10% transcutol and 40% PEG3350 (50% in water), and then applied to male Guangxi Bama mini-pigs (17-20 kg). Twenty-four hour prior to dosing, the hair of the mini-pig was shaved in left and right sides of the back. Two areas at least 5 cm apart at each side of the back were exposed (a total of four areas, each of which was about 112 cm^2). At the time zero, the test article was dosed to the exposed skins with […]. After dosing, the blood and skin samples were collected at 0.5, 1, 3, 6 hour. The blood was taken via venipuncture, and collected to the tubes containing heparin sodium as the anticoagulant. Exposed skin was washed with soap and water before skin sample was collected. Upon the dosed skin the punch biopsy from the epidermis layer to the muscle layer were taken at each time point. Epidermis, dermis, subcutis and subcutaneous muscle were quickly separated, weighed and frozen in dry ice. Epidermis and dermis were homogenized in 1:3 (w/v) normal saline. Homogenized samples were extracted with 3 fold volumes of acetonitrile and quantified against a standard curve with LC-MS/MS system.

[4] = Mouse pharmacokinetic study (intravenous and oral); format: in vivo; details: male, plasma, ICR mice, solution
Method: Pharmacokinetic profile of test articles in rodent were evaluated in fasted male ICR mouse and Sprague-Dawley rats. […] Rats were dosed with 1 mg/kg and 5 mg/kg by intravenous injection and oral gavage, respectively. Beagle dogs were dosed with 1 mg/kg and 5 mg/kg by intravenous injection and oral gavage, respectively. After dosing, blood samples were collected at each time point. For IV injection group, time points were set at 5, 15, 30 min, and then 1, 2, 4, 8 and 24 hours after dosing. For oral gavage group, timepoints were set at 15, 30 m, and then 1, 2, 4, 8, and 24 hours. Blood was collected into appropriately labeled tubes containing K2EDTA as the anticoagulant. Plasma was obtained within 1 hours of blood collection by centrifugation at 8000×g and 4° C. for 6 minutes, and then stored at −20° C. until analyzed by LCMS/MS for quantification.

| SMILES | AUC [1] | Vd [1] | clearance [1] | half-life [1] | AUC [2] | Cmax [2] | bioavailability [2] | half-life [2] | Dermis, AUC0-last ([3]; dermis) | Epidermis AUC0-last ([3]; epidermis) | AUC ([4]; intravenous, 1 mg/kg) | Vd ([4]; intravenous, 1 mg/kg) | clearance ([4]; intravenous, 1 mg/kg) | half-life ([4]; intravenous, 1 mg/kg) | AUC ([4]; oral, 5 mg/kg) | Cmax ([4]; oral, 5 mg/kg) | bioavailability ([4]; oral, 5 mg/kg) | half-life ([4]; oral, 5 mg/kg) |
| --- | --- | --- | --- | --- | --- | --- | --- | --- | --- | --- | --- | --- | --- | --- | --- | --- | --- | --- |
| Cc1cnc(Nc2cnn(CC#N)c2)nc1-c1ccc(C(=O)NCC#N)cc1 [Example 4, N-(Cyanomethyl)-4-(2-((1-(cyanomethyl)-1H-pyrazol-4-yl)amino)-5-methylpyrimidin-4-yl)benzamide] | 855 ng·h/mL | 0.37 L/kg | 19.4 mL/min/kg | 13.2 min | 57.2 ng·h/mL | 58 ng/mL | 1.8% | 26.3 min | – | – | – | – | – | – | – | – | – | – |
| Cc1cnc(Nc2cnn(C3CC(C)(C)OC(C)(C)C3)c2)nc1-c1ccc(C(=O)NCC#N)cc1 [Example 113, N-(cyanomethyl)-4-(5-methyl-2-((1-(2,2,6,6-tetramethyltetrahydro-2H-pyran-4-yl)-1H-pyrazol-4-yl)amino)pyrimidin-4-yl)benzamide] | – | – | – | – | – | – | – | – | 5209.4 ng·h/g | 107236.9 ng·h/g | 279 ng·h/mL | 0.67 L/kg | 59.5 mL/min/kg | 7.8 min | 113 ng·h/mL | 175 ng/mL | 8.26% | 102 min |
